# Assay results reported in patent US5112515A, “Phenothrin shampoo” (Euroceltique, S.A., priority 1990, dated 1992).
# Tested on: Bacteria, moulds and yeasts
# Experiment: Efficacy of Antimicrobial Preservatives in Pharmaceutical Products (British Pharmacopoeia 1988), overall outcome
# Assay type: cell-based
# Settings: specification of British Pharmacopoeia 1988
# Excerpt: The test procedure conformed with the specifications described in the 1988 British Pharmacopoeia--"Efficacy of Antimicrobial Preservatives in Pharmaceutical Products".
# Aliquots of microbial suspensions of Pseudomonas aeruoinosa NC18 8626, Stahylococcus aureus NCTC 10788, Candida albicans NCPF 3179, and Asperoillus niger IMI 149007 were introduced into separate containers of the composition of Example 1 to achieve a final concentration of approximately 1×10^6 cfu/ml. The same volume of inoculum was simultaneously introduced into separate equivalent quantities of 0.1% peptone water to be used as controls. The inoculated product was stored in the dark at 20°-25° C.
# 1 ml aliquots of the inoculated product were removed at 0, 6, 24 and 48 hours, 7, 14 and 28 days. Each was added to 9 ml of 0.1% peptone water containing the following as preservative inactivating agents:
# A topical preparation is considered to be effectively preserved if the following criteria are met:
# Bacteria--the number of organisms recovered per ml is reduced by a factor of not less than 10^3 within 48 hours of challenge and no organism is recovered from 1 ml at 7 days and thereafter;
# Moulds and Yeasts--the number of organisms recovered per ml is reduced by a factor of not less than 10^2 within 14 days of challenge and there is no increase thereafter.
structure (smiles),measurement,value
"O=[N+]([O-])C(Br)(CO)CO [bronopol, 2-bromo-2-nitropropane-1,3,-diol]",Antimicrobial protection / antimicrobial properties of the shampoo,good antimicrobial protection
